Tests used:
p53 = conditions: xenograft tumor tissues; cited from earlier work
RS4;11 cells [1] = assay: MTT cell viability (anti-proliferation) assay; type: cell-based, human; conditions: for IC50: Homo sapiens, RS4-11, MTT assay, 48 h incubation, read-out: IC50, inhibition of growth/proliferation of RS4;11 cells; for anti-proliferation effect, rank in screen / anti-proliferation potency relative to parent MDM2 inhibitor: RS4;11 cells; for anti-proliferation effect, rank in screen: compounds tested at 100 nM; for anti-proliferation potency relative to parent MDM2 inhibitor: 20 vs 1, 32 vs (4S, 5R)-1
Protocol: The “MTT assay” is a colorimetric assay for assessing cellular metabolic activity. NAD(P)H-dependent cellular oxidoreductase enzymes reflect the number of viable cells present. These enzymes are capable of reducing the tetrazolium dye 3-(4,5-dimethylthiazol-2-yl)-2,5-diphenyltetrazolium bromide (“MTT”) to its insoluble formazan, which has a purple color and whose concentration is then measured spectrophotometrically. The MTT assay is conventional and well known. See, for example, Stockert et al. (2018) “Tetrazolium salts and formazan products in Cell Biology: Viability assessment, fluorescence imaging, and labeling perspectives,” Acta Histochemica 120: 159-167. As used herein, “MTT assay” refers broadly to the MTT assay itself and to the well-known variations of it that use structurally related tetrazolium salts (e.g., XTT, MTS, etc.).
(§1) The human acute leukemia RS4;11 cell line was purchased from American Type Culture Collection (ATCC Accession No. CRL-1873), and cultured in RPMI-1640 media (Corning Incorporated (USA), One Riverfront Plaza, Corning, N.Y. 14831) supplemented with 10% fetal bovine serum (FBS), 1% sodium pyruvate, 1% penicillin/streptomycin, and 10 mM HEPES at 37° C. under a humidified 5% CO2 atmosphere. The experiments were performed by using cells with 8-20 passages after purchasing.
Cells were seeded in a 96-well cell culture plate at a density of 2×10^4 cells with 90 μL cell culture media overnight. The cells were then treated with the indicated dose of compounds, respectively, and incubated at 37° C. under a humidified 5% CO2 atmosphere for 48 h. After the incubation, the cells were treated with 10 μL of MTT solution (5 mg/mL) and incubated with another 4 h, followed by the addition of 100 μL of solubilizing solution. The plate was placed on the shaker for overnight at room temperature until the formazan were entirely dissolved. The plate was scanned at 570 nm and 690 nm. The absorbance was normalized to the DMSO-treated cells, and the IC50 was calculated by non-linear regression analysis using GraphPad Prism 6 software.

MDM2 = biological target: T1, MDM2 (Homo sapiens, UniProt Q00987); assay: Western blot of MDM2 degradation and downstream proteins; type: cell-based; conditions: for MDM2 degradation at 100 nM, 20 compared with 32: identical conditions; for MDM2 degradation (Western blot): RS4;11 leukemia cells, data not shown
T1 construct: endogenous in cells; host or cells: RS4;11 (ATCC CRL-1873)
Protocol: as §1
Cells were treated with the indicated concentrations of compounds under the indicated time. Cells were collected and lysed with RIPA buffer (Corning) after being washed with cold PBS twice. The supernatant was collected after centrifugation at 16,000×g at 4° C. for 15 min. The protein concentration was measured with BCA (bicinchoninic acid) method. (Smith, P. K., et al. (1985) “Measurement of protein using bicinchoninic acid,” Anal. Biochem. 150(1):76-85.) The protein expressed in the whole cell lysates was identified by Western Blot. A quantity of 40 μg protein per sample was loaded and then separated by SDS-PAGE. Proteins in the gel was transferred to polyvinylidene fluoride (PVDF) membranes, then blocked with 5% non-fat milk, and probed with the primary antibodies at 4° C. overnight. The primary antibodies are as following: MDM2 (D1V2Z) (1:1000), p53 (DO-7) (1:1000), PARP (46D11) (1:1000), Caspase-3 (1:1000), and p21 Waf1/Cip 1(12D1) (1:1000), all of which were purchased from Cell Signaling Technology, Inc., 3 Trask Lane, Danvers, Mass. 01923, along with a-Tubulin (1:1000) and β-Actin (1:1000), which were purchased from R&D Systems, Inc., 614 McKinley Place NE, Minneapolis, Minn. 55413. The membrane was washed with TBS-T 3 times, and incubated with HRP-linked secondary antibodies for 1 h at room temperature, followed by washing with TBS-T. The membrane was incubated with ECL (Bio-rad) for 5 min. The protein band was visualized by using a Bio-Rad Chemi-Doc MP imaging system. The intensity of the band was measured by Image J software.

RS4;11 cells [2] = assay: Flow cytometry apoptosis, Annexin V / PI staining; type: cell-based, human; conditions: 24 h, 100 nM or 1 μM
Protocol: Cells were seeded in a 6 cm circular cell culture dish at a density of 5×10^6 cells. After being settled overnight, the cells were treated with the indicated concentrations of compounds for 24 h. The collected cells were double stained with FITC Annexin V and PI according to the manufacturer's protocols. The apoptosis was analyzed using a FITC Annexin V apoptosis detection kit (556547, BD Biosciences, 2350 Qume Drive, San Jose, Calif. 95131).

[3] = system: p53 transcriptional activity (MDM2, TP53, CDKN1A mRNA); assay: qRT-PCR of mRNA levels of p53 target genes; type: cell-based, human; conditions: RS4;11 cells, 6 h; for transcription of p53 targeted genes MDM2 and CDKN1A (p21): (4S,5R)-1 at 1 PM as printed, 32 at 100 nM
Protocol: Total RNA was extracted using GeneJET RNA Purification Kit (Thermo Scientific) and titrated by SYNERGY H1 Hybrid Multi-Mode Reader (BioTek) at 260 nm. 1 μg of total RNA was subjected to reverse transcription using High-Capacity cDNA Reverse Transcription Kit (appliedbiosystems). Quantitative RT-PCR was performed using PowerUp™ SYBR™ Green Master Mix (appliedbiosystems) and the amplification detected in a QuantStudio 7 Flex Real-Time PCR System (ThermoFisher Applied Biosystems).

T1 sequence (Q00987 whole entry): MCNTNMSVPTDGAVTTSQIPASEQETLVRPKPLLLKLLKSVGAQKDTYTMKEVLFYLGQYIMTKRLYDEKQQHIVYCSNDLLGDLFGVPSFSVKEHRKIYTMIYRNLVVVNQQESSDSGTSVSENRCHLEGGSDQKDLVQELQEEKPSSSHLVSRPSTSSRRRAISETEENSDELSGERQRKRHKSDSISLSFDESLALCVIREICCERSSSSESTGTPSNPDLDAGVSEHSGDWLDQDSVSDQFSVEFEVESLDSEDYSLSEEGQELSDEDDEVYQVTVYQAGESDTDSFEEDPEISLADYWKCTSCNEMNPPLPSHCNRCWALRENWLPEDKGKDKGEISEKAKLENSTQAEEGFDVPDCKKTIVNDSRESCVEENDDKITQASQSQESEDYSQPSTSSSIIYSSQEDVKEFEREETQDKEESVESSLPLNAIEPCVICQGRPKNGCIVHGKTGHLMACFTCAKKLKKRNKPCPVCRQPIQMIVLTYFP

Row | Compound | IC50 (RS4;11 cells [1]) | anti-proliferation effect, rank in screen (RS4;11 cells [1]) | anti-proliferation potency relative to parent MDM2 inhibitor (RS4;11 cells [1]) | MDM2 degradation at 100 nM, 20 compared with 32 (MDM2; RS4;11 cells) | MDM2 degradation (Western blot) (MDM2) | effect on TP53 mRNA [3] | transcription of p53 targeted genes MDM2 and CDKN1A (p21) [3] | other results
1 | CC(C)(C)C[C@@H]1N[C@@H](C(=O)N[C@H]2CC[C@H](O)CC2)[C@H](c2cccc(Cl)c2F)[C@]12C(=O)Nc1cc(Cl)ccc12 [SAR405838] |  |  |  |  |  |  |  | duration of p53 accumulation after a single dose (p53): only induced a few hours of p53 accumulation
2 | CCOc1cc(C(C)(C)C)ccc1C1=NC(c2ccc(Cl)cc2)C(c2ccc(Cl)cc2)N1C(=O)N1CCN(CC#Cc2cccc3c2CN(C2CCC(=O)NC2=O)C3=O)CC1 (racemic) [Compound 20, 3-(4-(3-(4-(2-(4-(tert-butyl)-2-ethoxyphenyl)-4,5-bis(4-chlorophenyl)-4,5-dihydro-1H-imidazole-1-carbonyl)piperazin-1-yl)prop-1-yn-1-yl)-1-oxoisoindolin-2-yl)piperidine-2,6-dione] | 7.2 nM | most potent inhibitor of RS4;11 | ~1,000 fold | significant degradation of MDM2 was observed | degrade significant amounts of MDM2 |  |  | 
3 | CCOc1cc(C(C)(C)C)ccc1C1=N[C@@H](c2ccc(Cl)cc2)[C@@H](c2ccc(Cl)cc2)N1C(=O)N1CCN(CC#Cc2cccc3c2CN(C2CCC(=O)NC2=O)C3=O)CC1 (stereo partly drawn) [Compound 32, 3-(4-(3-(4-((4S,5R)-2-(4-(tert-butyl)-2-ethoxyphenyl)-4,5-bis(4-chlorophenyl)-4,5-dihydro-1H-imidazole-1-carbonyl)piperazin-1-yl)prop-1-yn-1-yl)-1-oxoisoindolin-2-yl)piperidine-2,6-dione] | 3.2 nM | most potent compound as compared to 33 and 34 | ~1,000 fold | superior | degrade significant amounts of MDM2 | Neither MDM2 ligand (4S, 5R)-1 nor degrader 32 has any effect on TP53 | more significant transcriptional upregulation | apoptosis induction, Annexin V-positive cells (RS4;11 cells [2]): A large number of cells were identified in Annexin V-positive quadrants; MDM2 degradation on co-treatment with MDM2 ligand (4S, 5R)-1 or CRBN ligand lenalidomide (MDM2; 32 at 100 nM, competitor 5 μM): significantly reduced; reversibility of MDM2 downregulation after washout (MDM2; 12 h treatment, then fresh medium): reversible; MDM2 degradation on co-incubation with proteasome inhibitor MG132 (MDM2; MG132 5 PM as printed): the degradation of MDM2 ceased; MDM2 and p53 protein levels (MDM2; RS4;11 cells, 100 nM or 1 μM): MDM2 depleted and p53 was stabilized and upregulated; cleavage of PARP and Caspase-3 (MDM2; RS4;11 cells, 100 nM or 1 μM): cleaved PARP and Caspase-3 were observed; p21 protein level (MDM2; RS4;11 cells, 100 nM or 1 μM): increased level of p21; Dmax at 0.1 µM (MDM2; RS4;11 cells, 24 h, observed at 100 nM, read-out: maximal level of MDM2 degradation (Dmax)): 90%; DC50 (MDM2; RS4;11 cells, 24 h incubation, read-out: concentration at which 50% MDM2 degradation was detected (DC50)): 23 nM; time after washout without return of MDM2 to pre-treatment levels (MDM2; RS4;11 cells, after removal of degrader): > 48 h; time at which MDM2 degradation was first observed (MDM2; RS4;11 cells, time course): 1 h; time at which cleaved PARP was observed (MDM2; RS4;11 cells, time course): 6 h
4 | CCOc1cc(C(C)(C)C)ccc1C1=NC(c2ccc(Cl)cc2)C(c2ccc(Cl)cc2)N1C(=O)N1CCN(C(=O)CCC#Cc2cccc3c2CN(C2CCC(=O)NC2=O)C3=O)CC1 (centres unmarked) [Compound 7, 3-(4-(5-(4-(2-(4-(tert-butyl)-2-ethoxyphenyl)-4,5-bis(4-chlorophenyl)-4,5-dihydro-1H-imidazole-1-carbonyl)piperazin-1-yl)-5-oxopent-1-yn-1-yl)-1-oxoisoindolin-2-yl)piperidine-2,6-dione] |  |  |  |  | degrade significant amounts of MDM2 |  |  | 
5 | CCOc1cc(C(C)(C)C)ccc1C1=N[C@@H](c2ccc(Cl)cc2)[C@@H](c2ccc(Cl)cc2)N1C(=O)N1CCNCC1 [(4S, 5R)-1, ((4S,5R)-2-(4-(tert-butyl)-2-ethoxyphenyl)-4,5-bis(4-chlorophenyl)-4,5-dihydro-1H-imidazol-1-yl)(piperazin-1-yl)methanone] |  |  |  |  |  | Neither MDM2 ligand (4S, 5R)-1 nor degrader 32 has any effect on TP53 | upregulated | 
6 | C=C1NC(=O)CCC1N1Cc2c(C#CCCCC(=O)NCC(=O)N3CCN(C(=O)N4C(c5ccc(C(C)(C)C)cc5OCC)=NC(c5ccc(Cl)cc5)C4c4ccc(Cl)cc4)CC3)cccc2C1=O (centres unmarked) [Compound 15, N-(2-(4-(2-(4-(tert-butyl)-2-ethoxyphenyl)-4,5-bis(4-chlorophenyl)-4,5-dihydro-1H-imidazole-1-carbonyl)piperazin-1-yl)-2-oxoethyl)-6-(2-(2-methylene-6-oxopiperidin-3-yl)-1-oxoisoindolin-4-yl)hex-5-ynamide] |  |  |  |  | degrade significant amounts of MDM2 |  |  | 

Reference: US20220251071A1, “METHOD TO MAKE SMALL-MOLECULE MURINE DOUBLE MINUTE 2 PROTEIN (MDM2)-DEGRADING COMPOUNDS, COMPOUNDS FORMED THEREBY, AND PHARMACEUTICAL COMPOSITIONS CONTAINING THEM” (Wisconsin Alumni Research Foundation, priority 2019, published 2022)
